Laboratory results reported in US20190300911A1, “METHODS FOR INCREASING THE FREQUENCY OF GENE TARGETING BY CHROMATIN MODIFICATION” (FRIEDRICH MIESCHER INSTITUTE FOR BIOMEDICAL RESEARCH, priority 2016, published 2019).
Where a SMILES comes first, the peptide text is derived from it. The star is where a group is joined. Cbz = O=C(OCc1ccccc1)*

Tests used:
[1] = tested on: core histones H2A, H2B, H3 and H4; experiment: Quantitative SILAC mass spectrometry of histone abundance before and after Zeocin; format: cell-based, Saccharomyces cerevisiae; settings: acute treatment (1 hour) with Zeocin
Protocol: For SILAC based mass spectrometry, lysine and arginine double labeling of the lys2A arg4A strain yAG-06A was achieved by growth for at least ten generations in “heavy” medium as described previously in Gruhler et al. 34. After growth to LOG phase or at G1 cell cycle arrest, “light” labeled cells (or “heavy” labeled cells for label-swap controls) were treated for 1 h with Zeocin and mixed 1:1 based on exact cell count with “heavy” labeled (“light” for label-swap control), non-treated control cells. Prior to mixing, FACS and Western blot samples were taken to test for cell cycle distribution and DDC activation.
Chromatin fractionation was performed as previously described with the modification that chromatin obtained from SILAC labeled yeast samples was resuspended in Urea Buffer (50 mM TRIS pH 7.5, 6 M Urea, 1% SDS, 5 mM EDTA) sonicated for optimal solubilizing of proteins followed by a TCA protein precipitation step prior to downstream mass spectrometric analysis. To avoid carbamylation in urea buffer, samples were kept below 20° C. and quickly processed. Control samples from whole cell extract (WCE), supernatant (SUP) and chromatin fraction (CHR) were analyzed with SDS-PAGE (Novex 8-16% Tris-Glycine Gel, Invitrogen) gel electrophoresis followed by Coomassie staining. […]

[2] = tested on: histone H3/H4; experiment: Quantitative immunoblot analysis of histone H3/H4 loss and DDC activation; format: cell-based, Saccharomyces cerevisiae
Protocol: The total protein content in the relevant samples was determined with the Quant-iT protein assay kit (Thermo Scientific) and 8.75 μg of total protein was loaded and run on Criterion TGX Stain-Free 8-16% (Biorad) gels under SDS denaturing electrophoresis conditions. Rapid fluorescent detection of all proteins in the gel or on the membrane was done according to the manufacturer's specifications and protein transfer on PVDF membranes was performed using the Trans-Blot Turbo system. Rad53 protein was detected using a custom-made mouse monoclonal antibody (GenScript) against FHA2 domain of Rad53. Anti-yH2A was similarly a custom-made polyclonal antibody, that is specific for phospho-S129 in yeast H2A.

[3] = tested on: nucleosome occupancy; experiment: Genome-wide nucleosome mapping (MNase-seq with Candida glabrata spike-in); format: cell-based, Saccharomyces cerevisiae; settings: Zeocin 500 μg/ml for 1 hour; reads normalized to C. glabrata
Protocol: Strains tested for changes in nucleosome occupancy (GA-6879 and GA-8386) were grown in appropriate media to OD600=0.8. Cultures were split into two and one of them was treated with Zeocin (500 μg/ml) for 1 hour. At this point the OD600 absorbance of each sample was measured and Candida glabrata cells were spiked in to 1/10 according to the sample OD600. Cells were washed three times with ice cold TBS (20 MM Tris.HCl pH8.0 and 150 mM NaCl) and lysed by beat beating in MNase digestion buffer (10 mM Tris pH 8.0, 50 mM NaCl, 5 mM MgCl2, 1 mM CaCl2), 1 mM beta-mercaptoethanol, 0.5 mM spermidine, 0.075% NP40). The obtained chromatin samples were MNase digested to isolate mono-nucleosomes and sequencing libraries were prepared according to the method described in Wiechens, N. et al. (Wiechens et al. 2016). Paired end libraries of MNase digested chromatin were sequenced using Illumina HiSeq technology. Fastq files containing raw reads were aligned to the S. cerevisiae and C. glabrata reference genomes by Bowtie2 with option of maximum fragment length 500 for nucleosome fragments. The nucleosome dyads at each position were calculated in a defined window flanking the transcription start site (TSS). […] The reads were further normalized by dividing the fraction of C. glabrata reads in the sample. […]

[4] = tested on: Histone H3 (H3-CFP); experiment: Time-lapse live cell tracking of H3-CFP in microfluidic chambers; format: cell-based, Saccharomyces cerevisiae
Protocol: For H3-CFP (Strain GA-3364 and derivatives) and 2-foci (Strain GA-9777) live cell fluorescent microscopy, LOG phase cells were trapped with 3 pulses of 5 psi pressure in CellASIC plates of the ONIX microfluidic perfusion system (Merck Millipore). All perfusions were done at a continuous flow rate of 2 psi pressure. After a 20-30 minute recovery phase, cells were treated for 30 minutes with the indicated amount of Zeocin prior to high-speed CFP-RFP tracking microscopy. The recovery phase of H3-CFP tagged cells was 20 minutes after which they were treated with a pulse of Zeocin for 1 hour and H3-CFP fluorescence was followed for additional 40 minutes after treatment.
Live microscopy was done on a temperature controllable Olympus IX81 microscope with a Yokogawa CSU-X1 scanning head equipped with two EM-CCD EvolveDelta (Photometrics) cameras, an ASI MS-2000 Z-piezo stage and a PlanApo x100, NA 1.45 total internal reflection fluorescence microscope oil objective and Visiview software. For mRFP-GFP or mRFP-CFP high-speed tracking, fluorophores were excited with lasers at 561 nm (mCherry or mRFP) and 491 nm (GFP) or 440 nm (CFP) and emitted fluorescence was acquired simultaneously on separate cameras (Semrock FF01-617/73-25 filter for mCherry/mRFP and Semrock FF02-525/40-25 filter for GFP or Semrock FF01-475/42-25 for CFP). High-speed time-lapse series were conducted taking 8 optical slices per stack either every 80 ms for 1 min or 300 ms for 2 min, with 10 ms exposure times per slice respectively. Time-lapse image stacks were analyzed as in Dion et al. 9, using a custom made ImageJ (FIJI) plug-in36 to extract coordinates of locus position from the movies. Phototoxicity was tested by exposing wild-type cells (GA-6879) to standard imaging conditions and following outgrowth for 5 h by morphological analysis, comparing them with unexposed cells. […] Boxplot graphs were generated by plotting all measured distances of treated or untreated cells. […] For each frame, the distance vector of tracks in two channels was measured by selecting the two spots with minimal distance. […]

[5] = tested on: S phase chromatin; experiment: Super-resolution microscopy of TetR-mCherry tagged locus 3D volume (chromatin expansion); format: cell-based, Saccharomyces cerevisiae; settings: cells fixed 30 min after exposure to different amounts of Zeocin
Description: Structured illumination images were acquired on a Zeiss Elyra S.1 microscope with a Andor iXon 885 EMCCD camera using a HR diode 488 […] solid state laser, BP 525-580+LP 750 filter and a PLAN-APOCHROMAT 63×N.A. 1.4 oil DIC objective lens. Cells were first fixed in PFA 4%, washed 3 times in PBS and then attached to a thin SIM grade Zeiss 1.5 glass coverslip using Concanavalin A. Cells were fully sectioned by 50-65 slices with […] intervals taken at 60 ms exposures per slice using 5 rotations of the illumination grid. Brightfield images of the cells were also acquired using an X-Cite PC 120 EXFO Metal Halide lamp. Zen Black was used to process the images using automatic settings with the Raw Scale option selected. 3D stacks were then analyzed by using pixel classification and a custom Matlab script to determine the spot volumes and other features as follows. […] Features calculated at the labeled pixels and their local neighborhood are then used to train a pixel classifier based on a Random Forest ensemble learning method. […] Finally, the program generates an ascii file where the key features like volume and solidity 3D and descriptive statistics are listed for all detected nuclei and foci. The solidity factor is calculated as the proportion of pixels in the 3D convex hull. […]

[6] = tested on: chromatin fiber; experiment: 3D distance between two differentially labeled genomic loci (chromatin flexibility); format: cell-based, Saccharomyces cerevisiae; settings: for average inter-spot distance between lacI-GFP and TetR-mRFP tagged loci after DNA damage: loci 320 kbp apart on Chr XIV
Description: Live microscopy was done on a temperature controllable Olympus IX81 microscope with a Yokogawa CSU-X1 scanning head equipped with two EM-CCD EvolveDelta (Photometrics) cameras, an ASI MS-2000 Z-piezo stage and a PlanApo x100, NA 1.45 total internal reflection fluorescence microscope oil objective and Visiview software. For mRFP-GFP or mRFP-CFP high-speed tracking, fluorophores were excited with lasers at 561 nm (mCherry or mRFP) and 491 nm (GFP) or 440 nm (CFP) and emitted fluorescence was acquired simultaneously on separate cameras (Semrock FF01-617/73-25 filter for mCherry/mRFP and Semrock FF02-525/40-25 filter for GFP or Semrock FF01-475/42-25 for CFP). High-speed time-lapse series were conducted taking 8 optical slices per stack either every 80 ms for 1 min or 300 ms for 2 min, with 10 ms exposure times per slice respectively. Time-lapse image stacks were analyzed as in Dion et al. 9, using a custom made ImageJ (FIJI) plug-in36 to extract coordinates of locus position from the movies. Phototoxicity was tested by exposing wild-type cells (GA-6879) to standard imaging conditions and following outgrowth for 5 h by morphological analysis, comparing them with unexposed cells. Time-series acquired from Strains GA-9227 and GA-9777 (Two-spot data) were deconvolved using Huygens Remote Manager, channel-aligned and cropped to contain one single cell/nucleus with the two respective fluorescent spots. Spot tracking over time was done with the ImageJ plugin TrackMate included in Fiji37. Boxplot graphs were generated by plotting all measured distances of treated or untreated cells. Relative MSD analysis was performed with KNIME38. For each frame, the distance vector of tracks in two channels was measured by selecting the two spots with minimal distance. The inventors performed an MSD analysis on the distance vectors for all frames and tracks with a maximum MSD(t) value bigger than 10 μm^2 were considered as outliers (due to mis-matching two distant tracks) and removed from the analysis. Relative MSD vs. t was averaged over all tracks and plotted using R.

[7] = biological target: T1, proteasome (Saccharomyces cerevisiae, UniProt P23724+P30656); experiment: Suppression of damage-induced histone degradation by proteasome inhibition; format: cell-based; settings: Zeocin-damaged cells
T1 construct: endogenous in cells; host or cells: Saccharomyces cerevisiae (budding yeast) cells treated with Zeocin

| Molecule | levels of the histone variant Htz1 (H2A.Z) [1] | loss of all core histones H2A, H2B, H3 and H4 (ratios of non-modified histone peptides, damage over control L/H) [1] | histone depletion in histone-shutdown strain with constitutive H3/H4 expression ([2]; growth in media with low level galactose, compared with cells with endogenous histone genes) | DDC activation (yH2A signal) ([2]; quantitative immunoblot) | relationship between histone H3/H4 loss and Zeocin treatment ([2]; quantitative immunoblot) | nucleosome occupancy within promoters and across coding regions [3] | time of Zeocin exposure within which histone H3 degradation occurred ([4]; H3-CFP fluorescence) [min] | Histone H3 degradation compared to undamaged cells ([4]; H3-CFP fluorescence, within 30 minutes of Zeocin exposure) [%] | DSBs per genome generated ([4]; pulse-treated for 1 h with Zeocin) | decompaction of S phase chromatin (3D TetR-mCherry foci volumes) [5] | average inter-spot distance between lacI-GFP and TetR-mRFP tagged loci after DNA damage ([6]; G1 cells, printed 0.97-1.2 (before-after)) [μm] | average inter-spot distance between lacI-GFP and TetR-mRFP tagged loci after DNA damage ([6]; S-phase cells, printed 0.99-1.12 (before-after)) [μm] | inter-spot dynamics and distances between CFP-lacI and TetR-mRFP tagged foci ([6]; loci 50 kbp apart on Chr III, real time) | effect on DNA damage-induced H3 or H4 degradation [7] |
| --- | --- | --- | --- | --- | --- | --- | --- | --- | --- | --- | --- | --- | --- | --- |
| Zeocin | remained stable | 20-40% | same depletion effect | robust DDC activation | dose-dependent relationship | drop in nucleosome occupancy | ≤ 30 | ~30 | 4-7 DSBs per genome | dose-dependent decompaction | 1.2 | 1.12 | robust increase | – |
| CC(C)C[C@@H](C=O)NC(=O)[C@H](CC(C)C)NC(=O)[C@H](CC(C)C)NC(=O)OCc1ccccc1 [MG132] (Cbz-Leu-Leu-Leu-aldehyde) | – | – | – | – | – | – | – | – | – | – | – | – | – | suppressed |
